Source: patent US6989263B1, “Method for identifying and using compounds that inactivate HIV-1 and other retroviruses by attacking highly conserved zinc fingers in the viral nucleocapsid protein” (The United States of America as represented by the …, priority 1994, dated 2006)
“Also recorded” adds a separate entry of the source. Read-outs that look alike come from different tables or passages of the source.

Experiments:
p7NC = target: T1, p7NC (Human immunodeficiency virus type 1 group M subtype B, UniProt P05888); assay: HPLC analysis of reaction products of purified p7NC with reagent; type: biochemical, HIV-1; parameters: key to Protein (HPLC): reaction products / Protein (HPLC): reaction rate: formation of non-native, intra-protein disulfide links (designated “Disulfides”); some of the reagents form adducts with the cysteine residues as well (designated “Adducts”); slow: “Slow” reactions are those in which greater than 10% of the p7NC protein remained in its native form after the 10 minute incubation with reagent; very slow: “Very slow” reactions are those in which greater than 50% of the p7NC protein remained in its native form after the 10 minute incubation with reagent; fast: “Fast” reactions result in complete transformation of the p7NC protein to non-native conformations during the 10 minute incubation period; details: for Protein (HPLC): reaction products / Protein (HPLC): reaction rate: 63 μM p7NC, 6 reagent : 1 protein, 10 minutes
T1 construct: The NC protein of HIV-1 (MN) p7NC was expressed in E. coli; made in house; host or cells: E. coli (vector pMAL-c)
Excerpt: Highly purified retroviral NC proteins can be produced by expression from vectors generated through recombinant DNA technology. These proteins when reconstituted with zinc (see, Summers, et al., Protein Science 1:563–567 (1992) for methods), provide the source of the NC proteins containing the zinc fingers that are the targets for attack by the compounds of this invention. When the zinc fingers in NC proteins react with identified compounds, the reaction produces a covalent change in the NC protein, and the modified protein can be separated from the unreacted protein by, for example, reversed phase HPLC.
Samples of p7NC and apo-p7 were reacted with varying amounts of cupric chloride and resulting products separated by HPLC. The reactions were carried out using 44.3 μM protein (p7NC or apo-p7) in 0.1 M Tris-HCl, pH 7.4, for 6 minutes at room temperature with varying concentrations of CuCl2 to achieve the indicated ratios of reactants, in a final volume of 0.7 ml. Chromatography was carried out on the resulting products at pH 2 (0.05% trifluoroacetic acid) on μBondapak™ C-18 (3.9×300 mm) at 1.0 ml/minute using an acetonitrile gradient (0–17%, 20 ml; 17–20%, 60 ml; 20–60%, 10 ml). Elution positions of unreacted protein (p7NC or apo-p7) are indicated as apo-p7.
A two-fold excess of NOBA was reacted with p7NC, and the products were separated by HPLC (FIG. 10) as described above for Cu^+2 and p7NC. Elution positions for the reactants (NOBA and unreacted p7NC) and products, reacted p7NC, NOBA, HABA and AzoxyBA are indicated and an elution profile is included in FIG. 10. NOBA and AzoxyBA were supplied by Octamer, Inc. (Mill Valley, Calif.) and used as HPLC standards.
The disulfide reagent of choice (each available from the Aldrich Chemical Company (Milwaukee, Wis.)) was incubated for 10 minutes with purified p7NC protein (63 μM) at a ratio of 6 molecules of reagent to 1 molecule of NC protein (there are 6 cysteine thiols per NC protein). The formation of non-native protein conformations was monitored by HPLC as described above. […] Generally, the inactivation proceeds by formation of non-native, intra-protein disulfide links (designated “Disulfides”), but some of the reagents form adducts with the cysteine residues as well (designated “Adducts”). “Slow” reactions are those in which greater than 10% of the p7NC protein remained in its native form after the 10 minute incubation with reagent. “Very slow” reactions are those in which greater than 50% of the p7NC protein remained in its native form after the 10 minute incubation with reagent. “Fast” reactions result in complete transformation of the p7NC protein to non-native conformations during the 10 minute incubation period.

[1] = cited from earlier work
[2] = target: T2, HIV NC protein in intact virus (Human immunodeficiency virus type 1 group M subtype B, UniProt P05888); assay: Cross-linking of NC protein in intact HIV (non-reducing gel-mobility shift, western blot); type: biochemical, HIV-1; details: for X-link T-½ (min), HIV NC protein: HIV-1 @ 50 μM; for X-link T-½ (min), HIV NC protein (top number): intact HIV generally 12.5 μM, reagent generally 25 μM
T2 construct: endogenous in cells; host or cells: intact HIV virions
Excerpt: Purified concentrated retrovirus and antisera against the purified NC protein of the virus can be used to test the ability of a specific compound to penetrate the virus and react with the NC protein by forming disulfide complexes in the core of the virus. The compound is mixed with the whole retrovirus under reaction conditions appropriate for the compound. The virus is then removed from the reagent by centrifugation and disrupted in, e.g, standard SDS-PAGE sample buffer with (reduced) and without (non-reduced) 2-mercaptoethanol. The viral proteins are then separated by standard SDS-PAGE and the sample examined for the presence or absence of the monomeric NC protein in the non-reduced sample. Depending upon the virus used in the experiment and the conditions of electrophoresis, the NC protein can be visualized by protein staining methods, or by immuno-blot (e.g., western) methods. Compounds which react with the NC protein by attacking the zinc finger complexes and forming disulfide cross-linked products (i.e., which generate multimers in the mobility shift assay) inactivate the virus. Thus, compounds of interest (i.e., those which cause cross-linking) reduced the amount of monomeric NC protein detected.
In order to determine whether HIV-1MN was inactivated by NOBA, the virus was incubated with varying concentrations of NOBA (3.0, 0.3, 0.03 and 0 mM) as in Table 1. The reaction products were pelleted by centrifugation, and separated by SDS-PAGE under reducing (2% 2-mercaptoethanol, panel A), or non-reducing conditions (panel B). p7NC was visualized by immunoblot analysis using monospecific rabbit antisera to the purified NC proteins as per L. E. Henderson et al., J. Virol. 66:1856 (1992).
Disulfide reagents were further tested for their ability to disrupt NC structure in the virus, based on their ability to cause inter-NC cysteine disulfide bonds (i.e., cross-linking) in the intact virus. The formation of inter-NC cysteine disulfides creates NC multimers, which migrate through a non-reducing gel at a different rate than NC monomers, as described above. Intact HIV virus (generally 12.5 μM) was exposed to the specified reagent (generally 25 μM) for varying lengths of time and electrophoresed through a non-reducing SDS-polyacrylamide gel. HIV NC monomers and multimers were visualized by western blot analysis as described above in Example 3. The approximate time required to cross-link one-half of the NC proteins in the virus at the specified reaction conditions was then determined. […] The top number in the cells of the X-link column in Table 2 refers to the approximate time in minutes required for one-half of the HIV NC proteins to become cross-linked.

HIV-1 = details: read-out: TCID (Virus): concentration of reagent required to inactivate half of a standardized number of HIV-1 virus particles; tissue culture infectivity assay
Method: Concomitantly, the drug treated virions are tested for activity. The virions are suspended in media (rather than solubilized) and added to target cells. The cultures are then examined to determine whether the virions are still active.

[3] = target: T3, p11 Nucleocapsid Protein (p11NC) (Equine infectious anemia virus, UniProt P69732); assay: Cross-linking of p11NC in intact EIAV particles (gel-mobility shift); type: biochemical; details: intact EIAV (50 μM), 4× the HIV assay concentrations
T3 construct: a variety of disulfide reagents cross-link the p11NC protein in intact viral particles; endogenous in cells; host or cells: intact EIAV particles
T3 sequence (P69732 360-435): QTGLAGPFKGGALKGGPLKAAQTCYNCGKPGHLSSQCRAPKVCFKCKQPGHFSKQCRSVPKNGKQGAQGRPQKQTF
Excerpt: Essentially the same strategy was employed to analyze the ability of the various disulfide reagents to cross-link the p11 Nucleocapsid Protein (p11NC) in intact Equine Infectious Anemia Virus (EIAV) particles. The advantages of working with EIAV include the fact that it is not a human pathogen, and that the p11NC protein can be visualized by simple coomassie-blue staining after performing the gel-mobility shift assay (rather than by western blotting as for HIV) described above. The reaction conditions were essentially the same for the EIAV assays as for the HIV assays described above, except that the concentration of virus and disulfide reagent was 4× the concentrations used in the HIV assay above. The second number in each cell in the X-link column in Table 2 represents the time required to cross-link one-half of the p11NC protein in the intact viral particles. […] The bottom number in each cell of the X-link column, unless otherwise indicated, represents the concentration of EIAV used in the assay. Blank cells throughout Table 2 indicate that the compound has yet to be tested for the specified property.

HIV-1 (MN) p7NC = target: T4, HIV-1 (MN) p7NC (Human immunodeficiency virus type 1 group M subtype B, UniProt P05888); assay: Intrinsic Trp-37 fluorescence quenching of p7NC; type: biochemical; details: for change in intrinsic fluorescence of p7NC on incubation: Trp-37 fluorescence, zinc-reconstituted p7NC
T4 construct: The NC protein of HIV-1 (MN) p7NC was expressed in E. coli; made in house; host or cells: E. coli (vector pMAL-c)
Excerpt: The NC protein of HIV-1 (MN) p7NC was expressed in E. coli. The coding sequence for HIV-1(MN) p7NC was cloned and expressed using an inducible E. coli promoter in the vector pMAL-c (New England Biolabs Inc., Beverly, Mass.). The protein was expressed as a maltose-binding fusion protein and released by proteolysis with Factor Xa. HIV-1(MN) p7NC was purified by HPLC and characterized, including complete amino acid sequence analysis. p7NC was purified by high-pressure liquid chromatography (HPLC) and reconstituted with two equivalents of zinc to generate native protein as described (M. F. Summers et al., Protein Sci. 1, 563 (1992)).
Coordination of Zn^+2 enhances the intrinsic fluorescence of the single tryptophan (Trp-37) in the second zinc finger. […] The initial phase of the reaction with Cu^+2 (T1/2<20 seconds) gave 70% quenching of the original fluorescence, followed by a much slower phase (T1/2 ca. 6 minutes), resulting in a final limiting quenching of 85%.
The first quenching phase was a second order reaction, whereas the second phase was independent of protein concentration or oxidizing species.

| SMILES | Protein (HPLC): reaction products (p7NC) | cross-linking of the HIV-1 NC protein in intact virus (gel-mobility shift), in words [2] | Protein (HPLC): reaction rate (p7NC) | X-link T-½ (min), EIAV p11NC (second number) [3] | X-link T-½ (min), HIV NC protein (top number) [2] | further results |
| --- | --- | --- | --- | --- | --- | --- |
| c1ccc2sc(SSc3nc4ccccc4s3)nc2c1 [2,2 Dithiobis(benzothiazole)] | Disulfides | caused a cross-linking of the HIV-1 NC protein |  |  |  | Toxicity (LD-50, mouse) ([1]; route not given): 7000 mg/kg; X-link T-½ (min), HIV NC protein [2]: ~60 min |
| Cl.Cl.N=C(N)SSC(=N)N [Formamidine Disulfide.2HCl] | Disulfides |  |  |  |  | IC50 (HIV-1): 43.5 µM |
| O=C(O)c1ccc(SSc2ccc(C(=O)O)cn2)nc1 [6,6-Dithiodinicotinic Acid] | Disulfides; also recorded: Adducts |  | (slow) (“Slow” reactions are those in which greater than 10% of the p7NC protein remained in its native form after the 10 minute incubation with reagent) |  |  | X-link T-½ (min), HIV NC protein [2]: ~60 min |
| [O-][n+]1ccccc1SSc1cccc[n+]1[O-] [2,2-Dithiobis(Pyridine N-Oxide)] | Disulfides | caused a cross-linking of the HIV-1 NC protein |  | <15 min | <<15 min |  |
| CCCCN(CCCC)C(=S)SSC(=S)N(CCCC)CCCC [Tetrabutylthiuram Disulfide] | Disulfides; also recorded: Adducts | caused a cross-linking of the HIV-1 NC protein | (slow) (“Slow” reactions are those in which greater than 10% of the p7NC protein remained in its native form after the 10 minute incubation with reagent) | >60 min | ~30 min | Toxicity (LD-50, mouse) ([1]; IP): 2350 mg/kg |
| CN(C)C(=S)SSC(=S)N(C)C [Tetramethylthiuram Disulfide] | Disulfides | caused a cross-linking of the HIV-1 NC protein | (slow) (“Slow” reactions are those in which greater than 10% of the p7NC protein remained in its native form after the 10 minute incubation with reagent) | ~15 min | ~30 min | Toxicity (LD-50, mouse) ([1]; IP): 70 mg/kg; Toxicity (LD-50, mouse) ([1]; oral): 1350 mg/kg |
| CC(C)N(C(=S)SSC(=S)N(C(C)C)C(C)C)C(C)C [Tetraisopropylthiuram Disulfide] | Disulfides | caused a cross-linking of the HIV-1 NC protein |  | ~15 min | >15 min |  |
| [Cl][Cu][Cl] [Cu^+2, cupric chloride] |  |  |  |  |  | total protein recovered in peak B (p7NC; 2, 4 or 8 Cu^+2 per p7NC, 44.3 μM protein, 6 minutes, pH 7.4): approximately one half; change in intrinsic fluorescence of p7NC on incubation (HIV-1 (MN) p7NC): rapid biphasic decrease in fluorescence; final limiting quenching (HIV-1 (MN) p7NC; Zn^+2-coordinated p7NC): 85%; quenching of the original fluorescence, initial phase (HIV-1 (MN) p7NC; Zn^+2-coordinated p7NC): 70% |
| c1ccc(SSc2ccccn2)nc1 [Aldrithiol-2] | Disulfides; also recorded: Adducts | caused a cross-linking of the HIV-1 NC protein | (slow) (“Slow” reactions are those in which greater than 10% of the p7NC protein remained in its native form after the 10 minute incubation with reagent) | ~15 min | ~15 min | IC50 (HIV-1): 9 µM |
| N#Cc1ccccc1SSc1ccccc1C#N [2,2 Dithiobis(benzonitrile)] | Disulfides; also recorded: Adducts |  |  | ~15 min | <<15 min |  |
| CC(=O)[O-].CC(=O)[O-].CC(=O)[O-].[Fe+3] [ferric acetate] |  |  |  |  |  | change in intrinsic fluorescence of p7NC on incubation (HIV-1 (MN) p7NC): rapid biphasic decrease in fluorescence |
| CC(C)n1cc(C(C)(C)C)nc1SSc1nc(C(C)(C)C)cn1C(C)C [2,2-Dithiobis(4-Tert-Butyl-1-Isopropyl)-Imidazole] | Disulfides |  |  |  |  | X-link T-½ (min), HIV NC protein [2]: >>60 min |
